These results are taken from ChEMBL document CHEMBL3632521, “A study of ad-proline peptidomimetic inhibitor of melanoma and endothelial cell invasion through activity towards MMP-2 and MMP-9” (Medchemcomm, 2015).

The source made the active and inactive calls. The calls are words filed in the database; no cut-off is given here.

For series [1], the target named is T1, Matrix metalloproteinase-9 (Homo sapiens, UniProt P14780). As to the kind of experiment: Inhibition MMP-9 (unknown origin) using Mca-Lys-Pro-Leu-Gly-Leu-Dpa-Ala-Arg-NH2 as substrate preincubated for 5 mins followed by substrate addition measured for 30 mins by fluorometric assay.
For series [2], the target named is 72 kDa type IV collagenase (Homo sapiens, UniProt P08253). As to the kind of experiment: Inhibition MMP-2 (unknown origin) using Mca-Lys-Pro-Leu-Gly-Leu-Dpa-Ala-Arg-NH2 as substrate preincubated for 5 mins followed by substrate addition measured for 30 mins by fluorometric assay.
A short description of series [3]: Cytotoxic activity in human A375P cells at 2.5 to 50 uM after 24 hrs by trypan blue based inverted-phase microscopic analysis. The series is classed as cell-based.
Series [4] is described as follows: Cytostatic activity in human A375P cells at 2.5 to 50 uM after 72 hrs by trypan blue based inverted-phase microscopic analysis. Format: ADME, cell-based.
Series [5] can be described thus: Cytostatic activity in human A375P cells at 2.5 to 50 uM after 24 hrs by trypan blue based inverted-phase microscopic analysis. Format: ADME, cell-based.
The target in series [6] is T1, Matrix metalloproteinase-9. As to the kind of experiment: Inhibition of gelatinolytic activity of pro-MMP9 in human A375P cells assessed as reduction in active form of protein by gelatin zymography. The series is classed as cell-based.
The target of series [7] is T1, Matrix metalloproteinase-9. The series can be described thus: Inhibition of gelatinolytic activity of pro-MMP9 in human endothelial progenitor cells assessed as reduction in active form of protein at 20 uM by gelatin zymography.
For another series, the system named is EPC. The series can be described thus: Antiinvasive activity in human endothelial progenitor cells at 20 uM after 24 hrs by matrigel assay. Format: functional.
The species entered for the next series is Mus musculus. The series can be described thus: Antiangiogenic activity in FVB mouse receiving 20 uM compound containing matrigel mixtures with heparin resuspended in EGM-2 medium assessed as reduction in capillary network formation after 5 days by microscopy based matrigel sponge assay. Format: functional, organism-based.
A further series has as its system A375P. As to the kind of experiment: Antiinvasive activity in human A375P cells assessed as reduction in tumor cell migration at 20 uM measured for 6 hrs by matrigel assay. The series is classed as functional, cell-based.

T1 sequence (P14780 whole entry): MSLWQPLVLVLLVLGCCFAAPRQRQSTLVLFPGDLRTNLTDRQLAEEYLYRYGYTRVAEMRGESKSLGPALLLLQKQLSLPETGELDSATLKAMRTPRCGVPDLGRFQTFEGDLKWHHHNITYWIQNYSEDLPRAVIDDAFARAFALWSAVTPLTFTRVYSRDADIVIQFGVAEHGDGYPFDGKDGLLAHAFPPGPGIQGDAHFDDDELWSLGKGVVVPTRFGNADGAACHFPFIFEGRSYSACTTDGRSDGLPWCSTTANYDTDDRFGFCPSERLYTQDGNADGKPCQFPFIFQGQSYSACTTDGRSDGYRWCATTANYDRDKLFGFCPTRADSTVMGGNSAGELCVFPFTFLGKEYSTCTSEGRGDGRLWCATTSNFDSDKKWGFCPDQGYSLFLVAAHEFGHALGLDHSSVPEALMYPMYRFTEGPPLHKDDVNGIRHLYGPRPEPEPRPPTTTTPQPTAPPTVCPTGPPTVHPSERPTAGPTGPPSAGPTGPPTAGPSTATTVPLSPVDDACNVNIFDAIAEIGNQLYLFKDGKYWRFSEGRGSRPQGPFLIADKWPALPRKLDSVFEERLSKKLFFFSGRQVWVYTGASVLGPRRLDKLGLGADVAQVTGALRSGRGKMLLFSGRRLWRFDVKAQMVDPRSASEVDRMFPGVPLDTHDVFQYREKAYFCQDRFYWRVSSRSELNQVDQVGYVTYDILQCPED
Sequence of 72 kDa type IV collagenase (P08253 whole entry): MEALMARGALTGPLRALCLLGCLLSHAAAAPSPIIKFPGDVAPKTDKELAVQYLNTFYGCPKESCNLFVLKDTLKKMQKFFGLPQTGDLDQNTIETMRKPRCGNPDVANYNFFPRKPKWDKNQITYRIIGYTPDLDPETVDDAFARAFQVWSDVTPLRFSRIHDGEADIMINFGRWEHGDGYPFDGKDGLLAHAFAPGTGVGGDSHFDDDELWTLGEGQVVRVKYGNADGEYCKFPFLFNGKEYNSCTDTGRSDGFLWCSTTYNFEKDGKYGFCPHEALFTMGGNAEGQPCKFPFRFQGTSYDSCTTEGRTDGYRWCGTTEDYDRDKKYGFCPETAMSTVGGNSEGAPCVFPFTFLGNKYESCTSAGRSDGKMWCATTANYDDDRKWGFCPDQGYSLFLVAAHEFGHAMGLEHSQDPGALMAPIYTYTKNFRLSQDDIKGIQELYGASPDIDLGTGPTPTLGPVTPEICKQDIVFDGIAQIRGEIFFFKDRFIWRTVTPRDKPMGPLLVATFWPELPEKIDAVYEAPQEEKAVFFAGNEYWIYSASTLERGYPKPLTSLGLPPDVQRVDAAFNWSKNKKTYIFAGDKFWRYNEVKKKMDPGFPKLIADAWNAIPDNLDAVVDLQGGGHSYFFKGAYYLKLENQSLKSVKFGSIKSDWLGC

Consider `O=C(N[C@@H]1C[C@H](C(=O)NO)N(S(=O)(=O)c2ccc(Cl)c(Cl)c2)C1)c1cccs1`, for which the IC50 (in general, the concentration that gives 50% inhibition) in series [1] (read-out: IC50) was 0.1 µM; in [2] (read-out: IC50), 0.144 µM.

With `O=C(/C=C/c1ccco1)N[C@H]1C[C@H](C(=O)NO)N(S(=O)(=O)c2ccc(Cl)c(Cl)c2)C1`, in series [1] (read-out: IC50), the IC50 is 0.36 µM.

Regarding `O=C(NO)[C@H]1C[C@H](NS(=O)(=O)c2ccc(-c3ccccc3)cc2)CN1S(=O)(=O)c1ccc(Cl)c(Cl)c1`, the figures for the IC50 in [1] (read-out: IC50) and in series [2] (read-out: IC50) were 0.06 µM and 0.36 µM, respectively.

`COc1ccc(C(=O)N[C@H]2C[C@H](C(=O)NO)N(S(=O)(=O)c3ccc(Cl)c(Cl)c3)C2)c(OC)c1`: the concentration for half-maximal inhibition (IC50) in series [1] (read-out: IC50) is 1.71 µM; in series [2], “Not Active”.

Regarding `O=C(NO)[C@H]1C[C@@H](OCc2ccccc2)CN1S(=O)(=O)c1ccc(Cl)c(Cl)c1`, the IC50 in series [1] (read-out: IC50) is 0.9 µM; in [2], “Not Active”.

Consider `COc1ccc(C(=O)N[C@@H]2C[C@H](C(=O)NO)N(S(=O)(=O)c3ccc(Cl)c(Cl)c3)C2)c(OC)c1`, for which the values for the Activity result in series [3], in series [4] and in [5] were “Non-toxic”, “Toxic” and “Non-toxic”, respectively. For the same compound, the inhibition entry in series [6] was “Dose-dependent effect”. Besides, the inhibition entry in [7] was “Active”. Also, the IC50 in series [1] (read-out: IC50) is 0.56 µM; in series [2] (read-out: IC50), 0.45 µM. Also, the outcome with EPC, in the series listed under Mus musculus and in the series with A375P was Active.

As to `O=C(NO)[C@H]1C[C@@H](NS(=O)(=O)c2ccc(-c3ccccc3)cc2)CN1S(=O)(=O)c1ccc(Cl)c(Cl)c1`, the IC50 in series [1] (read-out: IC50) was 0.59 µM; in series [2] it was “Not Active”.

`O=C(NO)[C@H]1C[C@H](n2cc(-c3ccccc3)nn2)CN1S(=O)(=O)c1ccc(Cl)c(Cl)c1`: the IC50 in series [1] (read-out: IC50) is 1.2 µM.

Turning to `O=C(N[C@H]1C[C@H](C(=O)NO)N(S(=O)(=O)c2ccc(Cl)c(Cl)c2)C1)c1cccs1`, the IC50 result in [1] is recorded as “Not Active”.
